Activity calls are given as the source filed them. No cut-off for these calls is given here.
How the values were obtained:
Format in all cases: functional
[1] = target: T1, Glutamate receptor ionotropic, AMPA (Rattus norvegicus) (UniProt P19491+P19492+P19493+P19490); test: Antagonistic activity against 5 uM of quis/AMPA at the concentration of 200 uM; ns = not significant
[2] = target: T2, Glutamate receptor ionotropic, kainate (Rattus norvegicus) (UniProt P22756+Q01812+P42260+P42264+Q63273); test: Antagonistic activity against Ionotropic glutamate receptor kainate at the concentration of 200 uM; ns = not significant
[3] = target: T3, Glutamate NMDA receptor (Rattus norvegicus) (UniProt P35439+Q00959+Q00960+Q00961+Q62645+Q8VHN2+Q9R1M7); test: Depression of depolarizing response vs 10 uM N-methyl-D-aspartate glutamate receptor at the concentration of 200 uM; inactive
[4] = target: T3, Glutamate NMDA receptor (Rattus norvegicus); test: Antagonistic activity against 10 uM of N-methyl-D-aspartate glutamate receptor at the concentration of 200 uM; set-up: scale not given: the % may be the effect or the level left
[5] = target: T3, Glutamate NMDA receptor (Rattus norvegicus); test: Depression of depolarizing response vs 10 uM N-methyl-D-aspartate glutamate receptor at the concentration of 500 uM; inactive
[6] = target: T1, Glutamate receptor ionotropic, AMPA (Rattus norvegicus); test: Antagonistic activity against 5 uM of quis/AMPA at the concentration of 100 uM; set-up: scale not given: the % may be the effect or the level left
[7] = target: T2, Glutamate receptor ionotropic, kainate (Rattus norvegicus); test: Antagonistic activity against Ionotropic glutamate receptor kainate at the concentration of 100 uM; set-up: scale not given: the % may be the effect or the level left
[8] = target: T3, Glutamate NMDA receptor (Rattus norvegicus); test: Antagonistic activity against 10 uM of N-methyl-D-aspartate glutamate receptor at the concentration of 100 uM; set-up: scale not given: the % may be the effect or the level left
[9] = target: T3, Glutamate NMDA receptor (Rattus norvegicus); test: Antagonistic activity against 10 uM of N-methyl-D-aspartate glutamate receptor at the concentration of 500 uM; ns = not significant
[10] = target: T1, Glutamate receptor ionotropic, AMPA (Rattus norvegicus); test: Antagonistic activity against 5 uM of quis/AMPA at the concentration of 500 uM; ns = not significant
[11] = target: T2, Glutamate receptor ionotropic, kainate (Rattus norvegicus); test: Antagonistic activity against Ionotropic glutamate receptor kainate at the concentration of 500 uM; ns = not significant
[12] = target: T3, Glutamate NMDA receptor (Rattus norvegicus); test: Depression of depolarizing response vs 10 uM N-methyl-D-aspartate glutamate receptor at the concentration of 500 uM
[13] = target: T3, Glutamate NMDA receptor (Rattus norvegicus); test: Antagonistic activity against 10 uM of N-methyl-D-aspartate glutamate receptor at the concentration of 500 uM; set-up: scale not given: the % may be the effect or the level left
[14] = target: T2, Glutamate receptor ionotropic, kainate (Rattus norvegicus); test: Antagonistic activity against Ionotropic glutamate receptor kainate at the concentration of 200 uM; set-up: scale not given: the % may be the effect or the level left
[15] = target: T1, Glutamate receptor ionotropic, AMPA (Rattus norvegicus); test: Antagonistic activity against 5 uM of quis/AMPA at the concentration of 200 uM; set-up: scale not given: the % may be the effect or the level left

Structure (SMILES) | Activity [4] [%] | Activity [5] | Activity [10] | Activity [11] | Activity [12] | other results
NC1(C(=O)O)CC(=CP(=O)(O)O)C1 (configuration not stated) |  | inactive |  |  |  | Activity [6]: 30%; Activity [7]: 25%; Activity [8]: 40%
N[C@]1(C(=O)O)C[C@H](CC(=O)O)C1 |  |  | inactive | inactive | 0.65 | Activity [9]: inactive
N[C@]1(C(=O)O)C[C@@H](CC(=O)O)C1 | 50 |  |  |  | 0.25 | 

Further lines, with some results ahead:

Activity [4] [%] | Activity [5] | Activity [10] | Activity [11] | Activity [12] | Structure (SMILES) | other results
40 |  |  |  |  | N[C@]1(C(=O)O)C[C@@H](CP(=O)(O)O)C1 | Activity [1]: inactive; Activity [2]: inactive; Activity [3]: inactive
 | inactive | inactive | inactive |  | N[C@]1(C(=O)O)C[C@@H](CCCP(=O)(O)O)C1.N[C@]1(C(=O)O)C[C@H](CCCP(=O)(O)O)C1 | Activity [13]: 50%
40 | inactive |  |  |  | N[C@]1(C(=O)O)C[C@@H](CP(=O)(O)O)C1.N[C@]1(C(=O)O)C[C@H](CP(=O)(O)O)C1 | Activity [14]: 25%; Activity [15]: 25%
